The test system of this test is recombinant NL4-3 virus (Renilla luciferase in nef, Gag P373S). The test is described as follows: HIV cell culture assay (luciferase activity in MT-2 cells infected with NLRluc recombinant virus). Type of test: cell-based. The conditions noted are these: NL43, MT-2 cells infected 4-5 days with NLRluc recombinant virus, class symbol. An outline of the steps:
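Activity was read as luciferase output (Dual Luciferase reagents premixed with lysis solution) after 4–5 days of infection in serially diluted inhibitor. Host cells were MT-2 in 10% FBS RPMI. The reporter virus came from transfected 293T cells and was titered on MT-2.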

pEC50: −log10 of the molar value.

From patent publication US8748415B2 (priority 2011, dated 2014) come the findings set out here.

Broadly, the pEC50 is the negative decadic logarithm of the EC50, by convention in mol/L. On to `C=C(C)[C@@H]1CC[C@]2(CNCCC(=O)N(C)C)CC[C@]3(C)[C@H](CC[C@@H]4[C@@]5(C)CC=C(c6ccc(C(=O)O)cc6)C(C)(C)[C@@H]5CC[C@]43C)[C@@H]12` [Example 75, 4-((1R,3aS,5aR,5bR,7aR,11aS,11bR,13aR,13bR)-3a-((3-(dimethylamino)-3-oxopropylamino)methyl)-5a,5b,8,8,11a-pentamethyl-1-(prop-1-en-2-yl)-2,3,3a,4,5,5a,5b,6,7,7a,8,11,11a,11b,12,13,13a,13b-octadecahydro-1H-cyclopenta[a]chrysen-9-yl)benzoic acid], for which the pEC50 is over 7.00.
`C=C(C)[C@@H]1CC[C@]2(CNCCCCN3CCS(=O)(=O)CC3)CC[C@]3(C)[C@H](CC[C@@H]4[C@@]5(C)CC=C(c6ccc(C(=O)O)cc6)C(C)(C)[C@@H]5CC[C@]43C)[C@@H]12` [Example 76, 4-((1R,3aS,5aR,5bR,7aR,11aS,11bR,13aR,13bR)-3a-(((4-(1,1-dioxido-4-thiomorpholinyl)butyl)amino)methyl)-1-isopropenyl-5a,5b,8,8,11a-pentamethyl-2,3,3a,4,5,5a,5b,6,7,7a,8,11,11a,11b,12,13,13a,13b-octadecahydro-1H-cyclopenta[a]chrysen-9-yl)benzoic acid]: the pEC50 is over 7.00.
Turning to `C=C(C)[C@@H]1CC[C@]2(CNCCN3CCNC3=O)CC[C@]3(C)[C@H](CC[C@@H]4[C@@]5(C)CC=C(c6ccc(C(=O)O)cc6)C(C)(C)[C@@H]5CC[C@]43C)[C@@H]12` [Example 77, 4-((1R,3aS,5aR,5bR,7aR,11aS,11bR,13aR,13bR)-5a,5b,8,8,11a-pentamethyl-3a-((2-(2-oxoimidazolidin-1-yl)ethylamino)methyl)-1-(prop-1-en-2-yl)-2,3,3a,4,5,5a,5b,6,7,7a,8,11,11a,11b,12,13,13a,13b-octadecahydro-1H-cyclopenta[a]chrysen-9-yl)benzoic acid], the negative-log EC50 (pEC50) is over 7.00.
To `C=C(C)[C@@H]1CC[C@]2(CNCCN3CCCCC3=O)CC[C@]3(C)[C@H](CC[C@@H]4[C@@]5(C)CC=C(c6ccc(C(=O)O)cc6)C(C)(C)[C@@H]5CC[C@]43C)[C@@H]12` [Example 78, 4-((1R,3aS,5aR,5bR,7aR,11aS,11bR,13aR,13bR)-5a,5b,8,8,11a-pentamethyl-3a-((2-(2-oxopiperidin-1-yl)ethylamino)methyl)-1-(prop-1-en-2-yl)-2,3,3a,4,5,5a,5b,6,7,7a,8,11,11a,11b,12,13,13a,13b-octadecahydro-1H-cyclopenta[a]chrysen-9-yl)benzoic acid] belongs over 7.00; to `C=C(C)[C@@H]1CC[C@]2(CNCC(C)CN3CCCC3=O)CC[C@]3(C)[C@H](CC[C@@H]4[C@@]5(C)CC=C(c6ccc(C(=O)O)cc6)C(C)(C)[C@@H]5CC[C@]43C)[C@@H]12` (stereo partly drawn) [Example 79, 4-((1R,3aS,5aR,5bR,7aR,11aS,11bR,13aR,13bR)-5a,5b,8,8,11a-pentamethyl-3a-((2-methyl-3-(2-oxopyrrolidin-1-yl)propylamino)methyl)-1-(prop-1-en-2-yl)-2,3,3a,4,5,5a,5b,6,7,7a,8,11,11a,11b,12,13,13a,13b-octadecahydro-1H-cyclopenta[a]chrysen-9-yl)benzoic acid], over 7.00; to `C=C(C)[C@@H]1CC[C@]2(CNCCCN3C(=O)CCCC3=O)CC[C@]3(C)[C@H](CC[C@@H]4[C@@]5(C)CC=C(c6ccc(C(=O)O)cc6)C(C)(C)[C@@H]5CC[C@]43C)[C@@H]12` [Example 80, 4-((1R,3aS,5aR,5bR,7aR,11aS,11bR,13aR,13bR)-3a-((3-(2,6-dioxopiperidin-1-yl)propylamino)methyl)-5a,5b,8,8,11a-pentamethyl-1-(prop-1-en-2-yl)-2,3,3a,4,5,5a,5b,6,7,7a,8,11,11a,11b,12,13,13a,13b-octadecahydro-1H-cyclopenta[a]chrysen-9-yl)benzoic acid], over 7.00.
On to `C=C(C)[C@@H]1CC[C@]2(CNCC(O)CN3CCCC3=O)CC[C@]3(C)[C@H](CC[C@@H]4[C@@]5(C)CC=C(c6ccc(C(=O)O)cc6)C(C)(C)[C@@H]5CC[C@]43C)[C@@H]12` (stereo partly drawn) [Example 81, 4-((1R,3aS,5aR,5bR,7aR,11aS,11bR,13aR,13bR)-3a-((2-hydroxy-3-(2-oxopyrrolidin-1-yl)propylamino)methyl)-5a,5b,8,8,11a-pentamethyl-1-(prop-1-en-2-yl)-2,3,3a,4,5,5a,5b,6,7,7a,8,11,11a,11b,12,13,13a,13b-octadecahydro-1H-cyclopenta[a]chrysen-9-yl)benzoic acid], for which the pEC50 is over 7.00.
For `C=C(C)[C@@H]1CC[C@]2(CNC3(CN4CCCCC4)CC3)CC[C@]3(C)[C@H](CC[C@@H]4[C@@]5(C)CC=C(c6ccc(C(=O)O)cc6)C(C)(C)[C@@H]5CC[C@]43C)[C@@H]12` [Example 82, 4-((1R,3aS,5aR,5bR,7aR,11aS,11bR,13aR,13bR)-5a,5b,8,8,11a-pentamethyl-3a-((1-(piperidin-1-ylmethyl)cyclopropylamino)methyl)-1-(prop-1-en-2-yl)-2,3,3a,4,5,5a,5b,6,7,7a,8,11,11a,11b,12,13,13a,13b-octadecahydro-1H-cyclopenta[a]chrysen-9-yl)benzoic acid], the pEC50 was over 7.00.
To `C=C(C)[C@@H]1CC[C@]2(CN(C)C)CC[C@]3(C)[C@H](CC[C@@H]4[C@@]5(C)CC=C(c6ccc(C(=O)O)cc6)C(C)(C)[C@@H]5CC[C@]43C)[C@@H]12` [Example 83, 4-((1R,3aS,5aR,5bR,7aR,11aS,11bR,13aR,13bR)-3a-((dimethylamino)methyl)-5a,5b,8,8,11a-pentamethyl-1-(prop-1-en-2-yl)-2,3,3a,4,5,5a,5b,6,7,7a,8,11,11a,11b,12,13,13a,13b-octadecahydro-1H-cyclopenta[a]chrysen-9-yl)benzoic acid] belongs over 7.00; to `C=C(C)[C@@H]1CC[C@]2(CN(CCCN3CCS(=O)(=O)CC3)C3CC3)CC[C@]3(C)[C@H](CC[C@@H]4[C@@]5(C)CC=C(c6ccc(C(=O)O)cc6)C(C)(C)[C@@H]5CC[C@]43C)[C@@H]12` [Example 84, 4-((1R,3aS,5aR,5bR,7aR,11aS,11bR,13aR,13bR)-3a-((cyclopropyl(3-(1,1-dioxido-4-thiomorpholinyl)propyl)amino)methyl)-1-isopropenyl-5a,5b,8,8,11a-pentamethyl-2,3,3a,4,5,5a,5b,6,7,7a,8,11,11a,11b,12,13,13a,13b-octadecahydro-1H-cyclopenta[a]chrysen-9-yl)benzoic acid], over 7.00; to `C=C(C)[C@@H]1CC[C@]2(CNCCN(C)CCS(C)(=O)=O)CC[C@]3(C)[C@H](CC[C@@H]4[C@@]5(C)CC=C(c6ccc(C(=O)O)cc6)C(C)(C)[C@@H]5CC[C@]43C)[C@@H]12` [Example 85, 4-((1R,3aS,5aR,5bR,7aR,11aS,11bR,13aR,13bR)-5a,5b,8,8,11a-pentamethyl-3a-((2-(methyl(2-(methylsulfonyl)ethyl)amino)ethylamino)methyl)-1-(prop-1-en-2-yl)-2,3,3a,4,5,5a,5b,6,7,7a,8,11,11a,11b,12,13,13a,13b-octadecahydro-1H-cyclopenta[a]chrysen-9-yl)benzoic acid], over 7.00.
As to `C=C(C)[C@@H]1CC[C@]2(CNCCN3CCSCC3)CC[C@]3(C)[C@H](CC[C@@H]4[C@@]5(C)CC=C(c6ccc(C(=O)O)cc6)C(C)(C)[C@@H]5CC[C@]43C)[C@@H]12` [Example 86], the pEC50 is over 7.00.
